Source: the CheMixHub viscosity set
“And” between values parts separate entries of the source, which are not always exact repeats. Equal entries are not always repeated. ± gives the uncertainty stated by the source.

Work on `OC1CCCCCCC1` yielded a viscosity (293.15 K, 100 kPa) of 210 ± 10 mPa·s, a viscosity (298.15 K, 100 kPa) of 143 ± 5.6 mPa·s and a viscosity (303.15 K, 100 kPa) of 102.5 ± 3.8 mPa·s. It also gave a viscosity (308.15 K, 100 kPa) of 72 ± 3.2 mPa·s, a viscosity (313.15 K, 100 kPa) of 55 ± 3.1 mPa·s and a viscosity (318.15 K, 100 kPa) of 40 ± 3.1 mPa·s.
In the case of `c1cscn1`, the viscosity (298.15 K, 101 kPa) is reported as 1.008 ± 0.027 mPa·s.
In the case of `CCOC(=O)c1ccccc1`, the viscosity (293.15 K, 101.33 kPa) is reported as 2.013 ± 0.052 mPa·s and 2.21 ± 0.02 mPa·s, the viscosity (298.15 K, 101.33 kPa) is reported as 1.954 ± 0.025 mPa·s and 1.936 ± 0.023 mPa·s and the viscosity (303.15 K, 101.33 kPa) is reported as 1.597 ± 0.041 mPa·s and 1.77 ± 0.022 mPa·s and 1.811 ± 0.016 mPa·s. The viscosity (308 K, 101.3 kPa) was 1.593 ± 0.16 mPa·s, the viscosity (308.15 K, 101.33 kPa) was 1.61 ± 0.021 mPa·s and 1.591 ± 0.019 mPa·s and the viscosity (313 K, 101.3 kPa) was 1.446 ± 0.14 mPa·s. The viscosity (313.15 K, 101 kPa) was 1.446 ± 0.035 mPa·s and 1.463 ± 0.031 mPa·s and 1.461 ± 0.022 mPa·s, the viscosity (313.15 K, 101.33 kPa) was 1.284 ± 0.033 mPa·s and 1.453 ± 0.018 mPa·s and the viscosity (318 K, 101.3 kPa) was 1.339 ± 0.13 mPa·s. The viscosity (318.15 K, 101 kPa) was 1.339 ± 0.033 mPa·s and 1.35 ± 0.042 mPa·s, the viscosity (318.15 K, 101.33 kPa) was 1.332 ± 0.016 mPa·s and the viscosity (323 K, 101.3 kPa) was 1.254 ± 0.13 mPa·s. The viscosity (323.15 K, 101 kPa) was 1.254 ± 0.031 mPa·s and the viscosity (323.15 K, 101.33 kPa) was 1.058 ± 0.027 mPa·s.
With `CCCNCCC` the viscosity (298.15 K, 100 kPa) was 0.504 ± 0.1 mPa·s and 0.5042 ± 0.15 mPa·s (2×), the viscosity (298.15 K, 101.33 kPa) was 0.503 ± 0.005 mPa·s and the viscosity (303.15 K, 100 kPa) was 0.471 ± 0.1 mPa·s and 0.4706 ± 0.15 mPa·s (2×). For the same compound, the viscosity (308.15 K, 100 kPa) was 0.444 ± 0.1 mPa·s and 0.4444 ± 0.15 mPa·s (2×), the viscosity (308.15 K, 101.33 kPa) was 0.444 ± 0.005 mPa·s and the viscosity (318.15 K, 101.33 kPa) was 0.386 ± 0.004 mPa·s.
For `C1=CCCCC1`, the viscosity (303.15 K, 101 kPa) was 0.573 ± 0.007 mPa·s.
For `CC(C)CC1CCCCC1`, the viscosity (293.15 K, 102 kPa) was 1.17 ± 0.02 mPa·s, the viscosity (303.15 K, 102 kPa) was 1 ± 0.02 mPa·s and the viscosity (313.15 K, 102 kPa) was 0.871 ± 0.021 mPa·s. For the same compound, the viscosity (323.15 K, 102 kPa) was 0.765 ± 0.021 mPa·s.
For `CCn1cc[n+](C)c1.N#C[S-]`, the viscosity (293.15 K, 101 kPa) was 26.31 ± 0.54 mPa·s, the viscosity (298.15 K, 100 kPa) was 23.06 ± 1.1 mPa·s and the viscosity (303.15 K, 100 kPa) was 19.68 ± 0.93 mPa·s. The viscosity (303.15 K, 101 kPa) was 19.03 ± 0.49 mPa·s, the viscosity (308.15 K, 100 kPa) was 16.97 ± 0.8 mPa·s and the viscosity (313.15 K, 100 kPa) was 14.54 ± 0.69 mPa·s (2×) and 16.97 ± 0.8 mPa·s. The viscosity (313.15 K, 101 kPa) was 14.3 ± 0.46 mPa·s, the viscosity (318.15 K, 100 kPa) was 12.98 ± 0.61 mPa·s (2×) and 14.54 ± 0.69 mPa·s and the viscosity (323.15 K, 100 kPa) was 11.49 ± 0.54 mPa·s. It also gave a viscosity (323.15 K, 101 kPa) of 11.1 ± 0.45 mPa·s.
In the case of `CCCCC[P+](CC)(CC)CC.O=S(=O)([N-]S(=O)(=O)C(F)(F)F)C(F)(F)F`, the viscosity (298.15 K, 101.3 kPa) is reported as 87.5 ± 18 mPa·s, the viscosity (303.15 K, 101.3 kPa) is reported as 68.8 ± 14 mPa·s and the viscosity (308.15 K, 101.3 kPa) is reported as 54.9 ± 11 mPa·s. For the same compound, the viscosity (318.15 K, 101.3 kPa) was 36.6 ± 7.3 mPa·s and the viscosity (323.15 K, 101.3 kPa) was 30.5 ± 6.1 mPa·s.
In the case of `CC(=O)[O-].CCCC[NH2+]CCO`, the viscosity (293.15 K, 101 kPa) is reported as 1412 ± 70 mPa·s, the viscosity (298.15 K, 101 kPa) is reported as 921.1 ± 41 mPa·s and the viscosity (303.15 K, 101 kPa) is reported as 616.9 ± 24 mPa·s. For the same compound, the viscosity (308.15 K, 101 kPa) was 423.3 ± 15 mPa·s, the viscosity (313.15 K, 101 kPa) was 297 ± 9.3 mPa·s and the viscosity (318.15 K, 101 kPa) was 212.7 ± 6 mPa·s. It also gave a viscosity (323.15 K, 101 kPa) of 155.3 ± 4 mPa·s.
`Cc1ccccc1[N+](=O)[O-]` gave a viscosity (298.15 K, 101 kPa) of 2.1 ± 0.021 mPa·s, a viscosity (298.15 K, 101.33 kPa) of 2.089 ± 0.021 mPa·s and a viscosity (308.15 K, 101.33 kPa) of 1.727 ± 0.011 mPa·s. The viscosity (323.15 K, 101.33 kPa) was 1.348 ± 0.013 mPa·s.
For `CCOC(=O)[C@@H](O)[C@H](O)C(=O)OCC`, the viscosity (293.15 K, 101 kPa) was 221.3 ± 4.6 mPa·s, the viscosity (298.15 K, 101 kPa) was 137.7 ± 2 mPa·s and 137.7 ± 2.1 mPa·s and the viscosity (303.15 K, 101 kPa) was 90.07 ± 0.93 mPa·s and 90.07 ± 1 mPa·s. The viscosity (308.15 K, 101 kPa) was 61.58 ± 0.47 mPa·s and 61.58 ± 0.56 mPa·s, the viscosity (313.15 K, 101 kPa) was 43.68 ± 0.34 mPa·s and 43.68 ± 0.4 mPa·s and the viscosity (318.15 K, 101 kPa) was 32.1 ± 0.25 mPa·s and 32.1 ± 0.29 mPa·s. For the same compound, the viscosity (323.15 K, 101 kPa) was 24.37 ± 0.19 mPa·s and 24.37 ± 0.22 mPa·s.
